According to ChEMBL document CHEMBL1130689, “Cathepsin B-sensitive dipeptide prodrugs. 2. Models of anticancer drugs paclitaxel (Taxol), mitomycin C and doxorubicin” (Bioorg Med Chem Lett, 1998):

Tests used:
[1] = The release rate of the free drug from the substrate in human plasma by human plasma stability assay; Not hydrolyzed; assay type: ADME, cell-free
[2] = organism: Rattus norvegicus; test: The release rate of the free drug from the substrate in rat liver lysosomal preparation by rat liver lysosomal assay; assay type: ADME
[3] = The release rate of the free drug from the substrate in presence of Cathepsin B by Cathepsin B assay; assay type: ADME
[4] = The release rate of the free drug from the substrate in human plasma by human plasma stability assay; assay type: ADME, cell-free

With `COc1cccc2c1C(=O)c1c(O)c3c(c(O)c1C2=O)C[C@@](O)(C(=O)CO)C[C@@H]3OC1CC(NC(=O)OCc2ccc(NC(=O)[C@H](CCCCN)NC(=O)[C@H](Cc3ccccc3)NC(=O)OCc3ccccc3)cc2)C(O)C(C)O1` (some centres not stated) the T1/2 [1] was “Not hydrolyzed”, the T1/2 [2] was 29 min and the T1/2 [3] was 8 min.

Work on `COC12C(COC(N)=O)C3=C(C(=O)C(C)=C(N)C3=O)N1CC1C2N1C(=O)OCc1ccc(NC(=O)[C@H](CCCCN)NC(=O)[C@H](Cc2ccccc2)NC(=O)OC(C)(C)C)cc1` (some centres not stated) yielded a T1/2 [4] of 149 h, a T1/2 [2] of 24 min and a T1/2 [3] of 10 min.

For `CC(=O)O[C@H]1C(=O)[C@@]2(C)C([C@H](OC(=O)c3ccccc3)[C@]3(O)C[C@H](OC(=O)[C@H](OC(=O)OCc4ccc(NC(=O)[C@H](CCCCN)NC(=O)[C@H](Cc5ccccc5)NC(=O)OCc5ccccc5)cc4)[C@@H](NC(=O)c4ccccc4)c4ccccc4)C(C)=C1C3(C)C)[C@]1(OC(C)=O)COC1C[C@@H]2O` (some centres not stated), the T1/2 [1] was “Not hydrolyzed”, the T1/2 [2] was 19 min and the T1/2 [3] was 540 min.

In the case of `CC(=O)O[C@H]1C(=O)[C@@]2(C)C([C@H](OC(=O)c3ccccc3)[C@]3(O)C[C@H](OC(=O)[C@H](O)[C@@H](NC(=O)c4ccccc4)c4ccccc4)C(C)=C1C3(C)C)[C@]1(OC(C)=O)COC1C[C@@H]2OC(=O)OCc1ccc(NC(=O)[C@H](CCCCN)NC(=O)[C@H](Cc2ccccc2)NC(=O)OC(C)(C)C)cc1` (some centres not stated), the T1/2 [1] is reported as “Not hydrolyzed”, the T1/2 [2] is reported as 66 min and the T1/2 [3] is reported as 40 min.
